Several values for one entry are separate records, joined by “and”; a condition that tells them apart may be missing. Identical values can stand only once.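 Assay format: 96-well plates, 48-hour exposure. GI50: concentration for 50% inhibition of growth. TGI: concentration producing complete growth inhibition.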
Columns and labels:
Experiment in all cases: NCI tumour cell line growth inhibition, 48 h
[1] = system: SK-OV-3 ovarian
[2] = system: LOX IMVI melanoma
[3] = system: NCI-H522 lung
[4] = system: PC-3 prostate
[5] = system: CCRF-CEM leukemia
[6] = system: K-562 leukemia
[7] = system: SNB-19 CNS
[8] = system: HT29 colon
[9] = system: MDA-MB-435
[10] = system: HCC-2998 colon

## COc1ccc(-c2cc3c(C)nc(N)nc3n(C3CCC(OCCO)CC3)c2=O)cn1 (centres undefined)
[1]
  GI50: 0.044 µM and 0.0814 µM
  TGI: 0.291 µM and 0.527 µM
[2]
  GI50: 0.111 µM and 0.0882 µM
  TGI: 1.12 µM and 0.943 µM
[3]
  GI50: 0.052 µM and 0.0337 µM
  TGI: 0.8 µM and 0.386 µM
[4]
  GI50: 0.0687 µM and 0.0222 µM
  TGI: > 2.73 µM and 0.299 µM
[5]
  GI50: 0.134 µM and 0.0803 µM
  TGI: > 23.8 µM
[6]
  GI50: 0.593 µM and 0.36 µM
  TGI: > 100 µM
[7]
  GI50: 0.318 µM and 0.28 µM
  TGI: 2.84 µM and 3.43 µM
[8]
  GI50: 0.0781 µM and 0.0809 µM
  TGI: 1.83 µM and 0.747 µM
[9]
  GI50: 0.0985 µM and 0.0842 µM
  TGI: 0.941 µM and 0.564 µM
[10]
  GI50: 0.0941 µM and 0.13 µM
  TGI: 1.8 µM and 1.71 µM

## Nc1nc2c(C(=O)NCc3cccs3)nnn2c2cccc(Cl)c12
[1]
  TGI: > 100 µM
[2]
  TGI: > 100 µM
[3]
  TGI: > 100 µM
[4]
  TGI: > 100 µM
[5]
  TGI: 55.6 µM
[6]
  TGI: > 100 µM
[7]
  TGI: > 100 µM
[8]
  TGI: > 100 µM
[9]
  TGI: > 100 µM
[10]
  TGI: > 100 µM

## CN=C1C=CC(=C(c2ccc(N(C)C)cc2)c2ccc(N(C)C)cc2)C=C1
[1]
  GI50: 0.261 µM
  TGI: 0.828 µM
[2]
  GI50: 0.201 µM
  TGI: 1.04 µM
[3]
  GI50: 0.253 µM
  TGI: 0.801 µM
[4]
  GI50: 0.286 µM
  TGI: 1.09 µM
[5]
  GI50: 0.256 µM
  TGI: 7.57 µM
[6]
  GI50: 0.0784 µM
  TGI: 1.1 µM
[7]
  GI50: 0.324 µM
  TGI: 1.94 µM
[8]
  GI50: 0.105 µM
  TGI: 0.496 µM
[9]
  GI50: 0.251 µM
  TGI: 0.66 µM
[10]
  GI50: 0.309 µM
  TGI: 1.27 µM

## Cc1c(C#N)cccc1[C@@H](C)Nc1nnc(C)c2cnc(N3CCOCC3)cc12
[1]
  GI50: 31.3 µM
  TGI: > 100 µM
[2]
  GI50: 27.5 µM
  TGI: > 100 µM
[3]
  GI50: 17.5 µM
  TGI: > 100 µM
[4]
  GI50: 27.8 µM
  TGI: > 100 µM
[5]
  GI50: 39.2 µM
  TGI: > 100 µM
[6]
  GI50: 0.367 µM
  TGI: > 100 µM
[7]
  GI50: 25.3 µM
  TGI: > 100 µM
[8]
  GI50: 35.2 µM
  TGI: > 100 µM
[9]
  GI50: 18.3 µM
  TGI: 49.1 µM
[10]
  GI50: 53.9 µM
  TGI: > 100 µM

## N#CC1=C(N)Oc2c(ccc3ccccc23)C1c1cc(=O)oc2ccc(Cl)cc12 (centres undefined)
[1]
  GI50: 0.965 µM
  TGI: > 100 µM
[2]
  GI50: 0.854 µM
  TGI: 40.5 µM
[3]
  GI50: 0.348 µM
  TGI: 2.97 µM
[4]
  GI50: 0.495 µM
  TGI: > 100 µM
[5]
  GI50: 0.407 µM
  TGI: 58.1 µM
[6]
  GI50: 0.375 µM
  TGI: > 100 µM
[7]
  GI50: 0.651 µM
  TGI: > 100 µM
[8]
  GI50: 1.91 µM
  TGI: 6.89 µM
[9]
  GI50: 0.244 µM
  TGI: 0.947 µM
[10]
  GI50: 2.72 µM
  TGI: 19.5 µM

## COc1cc(OC)cc(C2C3=C(COC3=O)Nc3cc(OC)ccc32)c1 (centres undefined)
[1]
  GI50: < 0.01 µM
  TGI: < 0.01 µM
[2]
  GI50: < 0.01 µM
  TGI: > 44.1 µM
[3]
  GI50: < 0.01 µM
  TGI: 0.836 µM
[4]
  GI50: < 0.01 µM
  TGI: > 42.3 µM
[5]
  GI50: < 0.01 µM
  TGI: > 100 µM
[6]
  GI50: < 0.01 µM
  TGI: 13.4 µM
[7]
  GI50: 0.0178 µM
  TGI: > 100 µM
[8]
  GI50: < 0.01 µM
  TGI: > 36.6 µM
[9]
  GI50: < 0.01 µM
  TGI: < 0.01 µM
[10]
  GI50: < 0.01 µM

## C1CN(c2nnc(N3CCC3)nn2)C1
[1]
  TGI: > 100 µM
[2]
  TGI: 36.1 µM
[3]
  TGI: 85.2 µM
[4]
  TGI: > 60 µM
[5]
  TGI: > 100 µM
[6]
  TGI: > 31.6 µM
[7]
  TGI: > 79.5 µM
[8]
  TGI: > 56.2 µM
[9]
  TGI: 32.4 µM
[10]
  TGI: > 100 µM

## C=C1C(O)C2CC(C)(CO)C(=O)C2=C(CC(C)C)C12CC2 (centres undefined)
[1]
  GI50: > 100 µM
  TGI: > 100 µM
[2]
  GI50: 57.9 µM
  TGI: > 100 µM
[3]
  GI50: 68.4 µM
  TGI: > 100 µM
[4]
  GI50: 56 µM
  TGI: > 100 µM
[5]
  GI50: 58 µM
  TGI: > 100 µM
[6]
  GI50: 31.9 µM
  TGI: > 100 µM
[7]
  GI50: > 100 µM
  TGI: > 100 µM
[8]
  GI50: > 100 µM
  TGI: > 100 µM
[9]
  GI50: 75 µM
  TGI: > 100 µM
[10]
  GI50: > 100 µM
  TGI: > 100 µM

## CC(=O)N1CCN(CCNC(=O)n2cc(-c3ccncc3)c(-c3cc(O)cc(Cl)c3)n2)CC1
[1]
  GI50: 12.4 µM
  TGI: 25.4 µM
[2]
  GI50: 6.85 µM
  TGI: 22.7 µM
[3]
  GI50: 14.9 µM
  TGI: 34.1 µM
[4]
  GI50: 13.6 µM
  TGI: 57.6 µM
[5]
  GI50: 11.8 µM
  TGI: 66.5 µM
[6]
  GI50: 4.41 µM
  TGI: 29.4 µM
[7]
  GI50: 21.4 µM
  TGI: 78.6 µM
[8]
  GI50: 3.28 µM
  TGI: 11.9 µM
[9]
  GI50: 2.7 µM
  TGI: 15.7 µM
[10]
  GI50: 17.2 µM
  TGI: 32.2 µM

— PubChem BioAssay (NCI)
